Experimental data: patent US12312354B2, “Selective BTK irreversible inhibitors” (SAN DIEGO STATE UNIVERSITY FOUNDATION, priority 2019, dated 2025)

Legend:
BTK = BTK (Homo sapiens, UniProt Q06187); assay: In vitro kinase assay (biochemical), BTK; settings: for IC50: in vitro kinase assay; for selectivity for BTK over BLK (BTK/BLK selectivity): ratio of BLK and BTK IC50
HER2 = HER2 (Homo sapiens, UniProt P04626); assay: In vitro kinase assay, HER2; assay type: biochemical
ITK = molecular target: T1, ITK (Homo sapiens, UniProt Q08881); assay: In vitro kinase assay, ITK; assay type: biochemical
T1 sequence (Q08881 1-620): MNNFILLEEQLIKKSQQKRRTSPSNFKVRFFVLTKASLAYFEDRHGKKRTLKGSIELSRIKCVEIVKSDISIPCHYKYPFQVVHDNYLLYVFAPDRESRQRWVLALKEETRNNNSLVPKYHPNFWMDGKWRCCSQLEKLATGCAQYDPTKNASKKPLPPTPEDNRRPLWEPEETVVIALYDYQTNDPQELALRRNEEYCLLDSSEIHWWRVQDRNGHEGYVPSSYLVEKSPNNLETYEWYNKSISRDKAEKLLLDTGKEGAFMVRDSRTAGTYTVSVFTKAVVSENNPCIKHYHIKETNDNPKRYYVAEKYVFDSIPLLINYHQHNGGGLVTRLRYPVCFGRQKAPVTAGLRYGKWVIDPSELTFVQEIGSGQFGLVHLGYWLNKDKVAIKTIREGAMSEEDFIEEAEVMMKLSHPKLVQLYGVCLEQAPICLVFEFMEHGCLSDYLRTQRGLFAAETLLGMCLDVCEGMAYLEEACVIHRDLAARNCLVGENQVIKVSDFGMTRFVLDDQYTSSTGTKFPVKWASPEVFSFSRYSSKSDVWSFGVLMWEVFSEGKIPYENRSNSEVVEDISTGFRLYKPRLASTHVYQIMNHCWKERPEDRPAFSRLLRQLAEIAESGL

BLK = BLK (Homo sapiens, UniProt P51451); assay: In vitro kinase assay, BLK; assay type: biochemical
BLK, sequence (P51451 whole entry): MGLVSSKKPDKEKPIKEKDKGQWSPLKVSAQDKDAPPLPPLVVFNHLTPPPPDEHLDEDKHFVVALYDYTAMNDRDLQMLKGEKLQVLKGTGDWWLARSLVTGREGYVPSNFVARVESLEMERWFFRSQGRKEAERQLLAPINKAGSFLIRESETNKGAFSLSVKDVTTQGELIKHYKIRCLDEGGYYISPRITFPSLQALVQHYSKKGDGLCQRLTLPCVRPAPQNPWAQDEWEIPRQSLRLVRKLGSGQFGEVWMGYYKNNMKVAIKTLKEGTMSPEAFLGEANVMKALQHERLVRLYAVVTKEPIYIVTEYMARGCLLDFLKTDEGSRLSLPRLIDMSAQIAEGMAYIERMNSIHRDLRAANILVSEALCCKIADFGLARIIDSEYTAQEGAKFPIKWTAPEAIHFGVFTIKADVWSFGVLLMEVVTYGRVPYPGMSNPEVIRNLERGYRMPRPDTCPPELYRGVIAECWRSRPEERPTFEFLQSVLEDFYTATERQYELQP

HER2, sequence (P04626 23-1255): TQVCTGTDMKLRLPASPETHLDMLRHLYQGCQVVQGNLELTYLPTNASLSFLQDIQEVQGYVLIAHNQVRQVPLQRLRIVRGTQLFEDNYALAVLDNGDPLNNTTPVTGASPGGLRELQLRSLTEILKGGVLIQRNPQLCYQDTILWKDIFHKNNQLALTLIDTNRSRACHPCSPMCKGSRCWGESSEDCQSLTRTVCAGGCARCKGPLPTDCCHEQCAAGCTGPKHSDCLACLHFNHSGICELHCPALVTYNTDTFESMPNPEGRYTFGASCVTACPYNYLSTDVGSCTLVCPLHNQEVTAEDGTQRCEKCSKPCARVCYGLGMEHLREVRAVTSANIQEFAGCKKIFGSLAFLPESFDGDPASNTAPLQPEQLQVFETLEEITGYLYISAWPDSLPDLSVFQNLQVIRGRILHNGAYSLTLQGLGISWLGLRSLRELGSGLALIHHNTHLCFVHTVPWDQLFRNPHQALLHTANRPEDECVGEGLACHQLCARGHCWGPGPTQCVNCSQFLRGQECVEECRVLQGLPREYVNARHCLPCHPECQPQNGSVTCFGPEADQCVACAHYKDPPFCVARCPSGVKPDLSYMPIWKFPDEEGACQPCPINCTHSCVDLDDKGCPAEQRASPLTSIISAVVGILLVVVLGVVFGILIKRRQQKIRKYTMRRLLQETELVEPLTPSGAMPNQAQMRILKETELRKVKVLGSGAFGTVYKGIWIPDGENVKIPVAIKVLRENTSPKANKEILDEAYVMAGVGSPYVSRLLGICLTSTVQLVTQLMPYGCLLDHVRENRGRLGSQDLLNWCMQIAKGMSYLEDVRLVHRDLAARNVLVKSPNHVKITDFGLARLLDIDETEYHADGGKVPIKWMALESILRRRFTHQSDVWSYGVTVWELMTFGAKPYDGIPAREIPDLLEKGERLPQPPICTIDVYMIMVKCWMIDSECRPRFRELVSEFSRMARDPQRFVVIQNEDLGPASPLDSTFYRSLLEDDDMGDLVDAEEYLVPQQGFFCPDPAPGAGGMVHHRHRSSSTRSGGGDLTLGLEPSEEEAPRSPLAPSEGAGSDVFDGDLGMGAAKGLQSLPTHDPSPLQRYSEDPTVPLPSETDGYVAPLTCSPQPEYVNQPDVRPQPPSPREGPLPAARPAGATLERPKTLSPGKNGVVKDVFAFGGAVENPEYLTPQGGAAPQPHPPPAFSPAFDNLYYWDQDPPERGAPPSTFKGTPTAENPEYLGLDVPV
BTK, sequence (Q06187 whole entry): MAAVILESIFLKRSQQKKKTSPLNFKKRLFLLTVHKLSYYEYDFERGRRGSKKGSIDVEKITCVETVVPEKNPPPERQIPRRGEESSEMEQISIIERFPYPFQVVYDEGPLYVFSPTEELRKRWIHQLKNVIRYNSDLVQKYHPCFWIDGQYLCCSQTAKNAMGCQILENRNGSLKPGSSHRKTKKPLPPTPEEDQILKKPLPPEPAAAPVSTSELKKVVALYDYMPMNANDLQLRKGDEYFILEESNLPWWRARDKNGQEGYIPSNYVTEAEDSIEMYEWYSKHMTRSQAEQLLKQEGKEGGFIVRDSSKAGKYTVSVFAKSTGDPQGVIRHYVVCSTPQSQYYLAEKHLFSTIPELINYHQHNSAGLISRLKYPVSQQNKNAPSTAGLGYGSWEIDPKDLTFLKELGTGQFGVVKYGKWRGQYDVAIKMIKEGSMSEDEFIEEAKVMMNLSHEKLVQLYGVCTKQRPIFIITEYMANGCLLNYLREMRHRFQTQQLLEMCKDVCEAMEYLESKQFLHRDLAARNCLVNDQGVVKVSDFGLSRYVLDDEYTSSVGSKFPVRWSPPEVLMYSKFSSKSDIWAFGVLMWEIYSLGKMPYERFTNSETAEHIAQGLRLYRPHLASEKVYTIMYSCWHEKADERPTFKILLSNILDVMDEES

| IC50 (BTK) | IC50 (HER2) | IC50 (ITK) | IC50 (BLK) | selectivity for BTK over BLK (BTK/BLK selectivity) (BTK) | improvement in affinity/potency towards BTK over the diastereomer (Ra, R) / (Ra)-3.1 (BTK; fold, BTK IC50 425 nM vs 3307 nM) | SMILES |
| --- | --- | --- | --- | --- | --- | --- |
| 3310 nM | > 10000 nM | > 10000 nM | 1810 nM |  |  | C=CC(=O)N1CCC[C@@H](n2c(C)c(-c3ccc(Oc4ccccc4)cc3C)c3c(N)ncnc32)C1 (single isomer, unassigned) [(Ra)-3.1] |
| 1.12 nM |  |  | 32.4 nM | 30 × |  | C=CC(=O)N1CCCC(n2nc(-c3ccc(C(=O)Nc4ccccn4)cc3C)c3c(N)ncnc32)C1 (stereo not shown) [3.11] |
| 5.5 nM |  |  | 8.4 nM |  |  | C=CC(=O)N1CCC[C@@H](n2nc(-c3ccc(Oc4ccccc4)cc3C)c3c(N)ncnc32)C1 [3.7] |
| 6.4 nM |  |  | 14 nM | about 2 × |  | C=CC(=O)N1CCC[C@@H](n2cc(-c3ccc(Oc4ccccc4)cc3C)c3c(N)ncnc32)C1 [3.6] |
| 24.2 nM |  |  | 128 nM |  |  | C=CC(=O)N1CCCC(n2c(C)c(-c3ccc(C(=O)Nc4ccccn4)cc3C)c3c(N)ncnc32)C1 (single isomer, unassigned) [(Ra)-3.10] |
| 425 nM | > 10000 nM | > 10000 nM | 187 nM |  | 10 × | C=CC(=O)N1CCC[C@H](n2c(C)c(-c3ccc(Oc4ccccc4)cc3C)c3c(N)ncnc32)C1 (single isomer, unassigned) [(Ra)-3.2] |
| 2.7 nM |  |  | 9.1 nM |  |  | C=CC(=O)N1CCC[C@@H](n2cc(-c3ccc(Oc4ccccc4)cc3)c3c(N)ncnc32)C1 [3.4] |
| 37.4 nM |  |  | 174 nM |  |  | C=CC(=O)N1CCCC(n2nc(-c3c(C)cc(Oc4ccccc4)cc3C)c3c(N)ncnc32)C1 (stereo not shown) [3.8] |
| 17.3 nM |  |  | 55.9 nM |  |  | C=CC(=O)N1CCC[C@H](n2cc(-c3ccc(Oc4ccccc4)cc3)c3c(N)ncnc32)C1 [3.5] |
| 21.7 nM |  |  | 90.4 nM |  |  | C=CC(=O)N1CCCC(n2c(C)c(-c3ccc(C(=O)Nc4ccccn4)cc3C)c3c(N)ncnc32)C1 (single isomer, unassigned) [(Sa)-3.10] |
| 444 nM |  |  | 451 nM |  |  | C=CC(=O)N1CCC[C@H](n2c(C)c(-c3ccc(Oc4ccccc4)cc3)c3c(N)ncnc32)C1 [3.3] |
| > 10000 nM | > 10000 nM | > 10000 nM | 9960 nM |  |  | C=CC(=O)N1CCC[C@@H](n2c(C)c(-c3ccc(Oc4ccccc4)cc3C)c3c(N)ncnc32)C1 (single isomer, unassigned) [(Sa)-3.1] |
| 3920 nM | > 10000 nM | > 10000 nM | 1730 nM |  |  | C=CC(=O)N1CCC[C@H](n2c(C)c(-c3ccc(Oc4ccccc4)cc3C)c3c(N)ncnc32)C1 (single isomer, unassigned) [(Sa)-3.2] |
| 0.47 nM | 451 nM |  | 0.29 nM |  |  | C=CC(=O)N1CCC[C@@H](n2cc(-c3ccc(Oc4ccccc4)cc3)c3c(N)ncnc32)C1 (racemic) [Rac] |
